# Read-outs that look alike come from different tables or passages of the source.
# How the values were obtained:
# [1] = test system: Acinetobacter baumannii pittii AG225; test: MIC by broth microdilution, Acinetobacter baumannii; assay type: cell-based; settings: strain AG225 Acinetobacter baumannii pittii
# [2] = test system: E coli carrying specific resistance determinants; test: MIC by broth microdilution, E coli carrying specific resistance determinants; assay type: cell-based; settings: for MIC50 / MIC: Escherichia coli
# M. smegmatis SZ380 = test: MIC by broth microdilution, M. smegmatis; settings: Mycolicibacterium smegmatis
# [3] = test system: rabbit reticulocyte ribosomes; test: in-vitro translation assay, rabbit reticulocyte ribosomes; assay type: biochemical; settings: mammalian cytosolic ribosomes (rabbit)
# [4] = test system: Klebsiella pneumonia AG215; test: MIC by broth microdilution, Klebsiella pneumonia; assay type: cell-based; settings: Klebsiella pneumoniae; strain AG215 Klebsiella pneumonia; read-out: MIC AG215 K. pneumon
# [5] = test system: wild type bacterial ribosomes; test: in-vitro translation assay, bacterial ribosomes; assay type: biochemical
# Excerpt: (§1) The antiribosomal activity of these compounds was investigated with cell-free translation assays using both wild type bacterial ribosomes and hybrid ribosomes carrying eukaryotic decoding A sites enabling the prediction of selectivity.
# [6] = test system: cytosolic ribosome (human chimeric); assay type: biochemical
# Excerpt: as §1
compound,measurement,setting,value
"NC[C@@H]1O[C@H](O[C@H]2[C@@H](O)[C@H](O[C@@H]3[C@@H](O)[C@H](N)C[C@H](N)[C@H]3O[C@H]3O[C@H](CO)[C@@H](O)[C@H](O)[C@H]3N)O[C@@H]2CO)[C@H](N)[C@@H](O)[C@@H]1O [paromomycin, reference compound]",MIC,[1],2 µg/mL
same,MIC APH(3′)-II,"[2]; APH(3′)-II, Table 3 (Example 2)",>64 µg/mL
same,MIC50,"[2]; read-out: MIC50 E coli AG07 AAC(3), AG07 AAC(3), Table 2A (Example 2)",4 to 8 µg/mL
same,MIC50,"[2]; read-out: MIC50 E coli AG09 AAC(6′), AG09 AAC(6′), Table 2A (Example 2)",8 to 16 µg/mL
same,MIC50,"[2]; read-out: MIC50 E coli AG036 ANT(4′,4″), AG036 ANT(4′,4″), Table 2A (Example 2)",256 µg/mL
same,MIC50,"[2]; read-out: MIC50 E coli AG036 ANT(4′,4″), AG036 ANT(4′,4″), Table 2B (Example 2)",32 to 64 µg/mL
same,MIC50,"[2]; read-out: MIC50 E coli AG037 APH(3′)-III, AG037 APH(3′)-III, Table 2B (Example 2)",> 128 µg/mL
same,MIC50,"[2]; read-out: MIC50 E coli AG037 APH(3′,5″), AG037 APH(3′,5″), Table 2A (Example 2)",> 256 µg/mL
same,MIC50,"[2]; read-out: MIC50 E coli AG103 ArmA, AG103 ArmA, Table 2A (Example 2)",4 µg/mL
same,MIC50,"[2]; read-out: MIC50 E coli AG103 armA, AG103 armA, Table 2B (Example 2)",2 µg/mL
same,MIC50,"[2]; read-out: MIC50 E coli AG105 AAC(2′), AG105 AAC(2′), Table 2A (Example 2)",2 to 4 µg/mL
same,MIC50,"[2]; read-out: MIC50 E coli pH414 AAC(6′)-I, pH414 AAC(6′)-I, Table 2B (Example 2)",2 µg/mL
same,MIC50,"[2]; read-out: MIC50 E coli pH415 AAC(6′)-II, pH415 AAC(6′)-II, Table 2B (Example 2)",2 to 4 µg/mL
same,MIC50,"[2]; read-out: MIC50 E coli pH421 APH(3′)-I, pH421 APH(3′)-I, Table 2B (Example 2)",> 128 µg/mL
same,MIC50,"[2]; read-out: MIC50 E coli pH422 APH(3′)-II, pH422 APH(3′)-II, Table 2B (Example 2)",> 128 µg/mL
same,MIC50,"[2]; read-out: MIC50 E coli pH423 APH(3)-VI, pH423 APH(3)-VI, Table 2B (Example 2)",> 128 µg/mL
same,MIC50,"[2]; read-out: MIC50 E coli pH432 ANT(4′), pH432 ANT(4′), Table 2B (Example 2)",1 to 2 µg/mL
same,MIC,[2]; read-out: MIC AAC(6′),2 to 4 µg/mL
same,MIC,[2]; read-out: MIC AG003 E. coli AAC(3)-II,2 to 4 µg/mL
same,MIC,"[2]; read-out: MIC AG036 ANT(4′,4′′)",32 to 64 µg/mL
same,MIC,[2]; read-out: MIC AG037 APH(3′)-III,> 128 µg/mL
same,MIC,[2]; read-out: MIC AG037 E. coli APH(3′)-III,> 128 µg/mL
same,MIC,[2]; read-out: MIC AG103 armA,2 µg/mL
same,MIC,[2]; read-out: MIC AG163 E. coli APH(3′)-I,> 128 µg/mL
same,MIC,[2]; read-out: MIC AG166 E. coli APH(3′)-II,> 128 µg/mL
same,MIC,[2]; read-out: MIC ANT(4′),32 to 64 µg/mL
same,MIC,[2]; read-out: MIC APH(3)-VI,> 64 µg/mL
same,MIC,[2]; read-out: MIC APH(3′)-I,> 64 µg/mL
same,MIC,[2]; read-out: MIC APH(3′)-II,> 64 µg/mL
same,MIC,[2]; read-out: MIC APH(3′)-III,> 64 µg/mL
same,MIC,[2]; read-out: MIC APH(3′)-VI,> 64 µg/mL
same,MIC,[2]; read-out: MIC E coli AG007 ANT(3″) AAC(3)-I,4 µg/mL
same,MIC,[2]; read-out: MIC E coli AG103 ArmA,1 to 2 µg/mL
same,MIC,[2]; read-out: MIC E coli AG106 AAC(2′),> 64 µg/mL
same,MIC,[2]; read-out: MIC E coli AG163/164 APH(3′)-Ia,> 128 µg/mL
same,MIC,[2]; read-out: MIC E coli AG166 APH(3′)-IIa,> 128 µg/mL
same,MIC,[2]; read-out: MIC E coli AG173 AAC(3)-IV,2 to 4 µg/mL
same,MIC,[2]; read-out: MIC E coli AG182 AAC(3)-IV APH(3′)-Ia,> 128 µg/mL
same,MIC,[2]; read-out: MIC E. coli AAC(2′) AG106,> 64 µg/mL
same,MIC,[2]; read-out: MIC E. coli AAC(2′) pH434,> 64 µg/mL
same,MIC,[2]; read-out: MIC E. coli AG106 AAC(2′)-Ia,> 64 µg/mL
same,MIC,[2]; read-out: MIC E. coli pGB2armA armA,2 µg/mL
same,MIC,[2]; read-out: MIC E. coli pH434 AAC(2′)-Ib,> 64 µg/mL
same,MIC,[2]; read-out: MIC pH414 AAC(6′)-I,2 µg/mL
same,MIC,[2]; read-out: MIC pH415 AAC(6′)-II,2 to 4 µg/mL
same,MIC,[2]; read-out: MIC pH421 APH(3)-I,> 128 µg/mL
same,MIC,[2]; read-out: MIC pH421 E. coli APH(3′)-I,> 128 µg/mL
same,MIC,[2]; read-out: MIC pH422 APH(3′)-II,> 128 µg/mL
same,MIC,[2]; read-out: MIC pH422 E. coli APH(3′)-II,> 128 µg/mL
same,MIC,[2]; read-out: MIC pH423 APH(3′)-VI,> 128 µg/mL
same,MIC,[2]; read-out: MIC pH423 E. coli APH(3′)-VI,> 128 µg/mL
same,MIC,[2]; read-out: MIC pH432 ANT(4′),1 to 2 µg/mL
same,MIC,"M. smegmatis SZ380; SZ380, read-out: MIC M. smegmatis SZ380 WT, SZ380 WT, Table 5 (Example 3)",1 µg/mL
same,MIC,"M. smegmatis SZ380; SZ380, read-out: MIC SZ380 M. smegmatis, strain SZ380 Mycobacterium smegmatis",1 µg/mL
same,IC50,[3],21 µM
same,MIC,[4],1 µg/mL
same,IC50,"[5]; Mycobacterium smegmatis ribosomes, read-out: IC50 Bacterial",0.04 µM
same,IC50,"[5]; bacterial ribosome, Table 3 (Example 1), read-out: IC50 Bac",0.04 µM
same,IC50,"[5]; bacterial ribosome, Table 3 (Example 2), read-out: IC50 Bac",0.04 µM
same,IC50,"[5]; bacterial ribosome, Table 4 (Example 3), read-out: IC50 Bac",0.04 µM
same,IC50,"[6]; cytosolic, Table 3 (Example 1), read-out: IC50 Cyt",31 µM
same,IC50,"[6]; cytosolic, Table 3 (Example 2), read-out: IC50 Cyt",31 µM
same,IC50,"[6]; cytosolic, Table 4 (Example 3), read-out: IC50 Cyt",31 µM
same,IC50,"[6]; ribosomes with a human cytosolic decoding site, read-out: IC50 Cytosolic",31 µM

# Source: US11466044B2 (WAYNE STATE UNIVERSITY, priority 2017, dated 2022)
